{
  "source": "patent EP0286825A2",
  "about": "“Use of 3'-fluro-3' deoxythymidine for the manufacture of a medicament for the treatment of virus infections” (Max-Planck-Gesellschaft zur Förderung der Wissenschaften …, priority 1987, dated 1988)",
  "key": {"HIV [1]": {"test_system": "HIV", "experiment": "microbe, parasite or virus in culture", "type": "cell-based", "conditions": "for EC50: Human immunodeficiency virus 1, MT4, read-out: concentration of active material that protects the cells with half maximum action against the pathogenic effect of HIV"}, "MT₄-cells": {"test_system": "MT₄-cells", "experiment": "Toxicity to MT4 cells in the absence of HIV, incorporation of thymidine", "conditions": "MT₄ cells without HIV, Fig. 5, compared with the other compounds"}, "HIV [2]": {"test_system": "HIV", "type": "cell-based"}, "[3]": {"test_system": "peripheral blood lymphocytes", "experiment": "Viability and cell number of the PHA stimulated peripheral blood lymphocytes", "conditions": "counts from thymidine incorporation"}, "HIV [4]": {"test_system": "HIV", "type": "cell-based", "remark": "listed apart in the source"}},
  "note": "Like-named read-outs stand apart in the source and are kept apart here.",
  "data": [
    {"smiles": "[N-]=[N+]=N[C@H]1C[C@H](n2cnc3c(O)ncnc32)O[C@@H]1CO", "note": "[3ʹ-azido-2ʹ,3ʹ-dideoxyinosine]", "values": [
      {"measurement": "rate of thymidine incorporation in the HIV infected cell line", "setting": "HIV [1]; Fig. 5", "result": "nearly equalled that of non-infected T₄ cell lines"},
      {"measurement": "Toxicity", "setting": "MT₄-cells", "result": "higher"}
    ]},
    {"smiles": "Cc1cn([C@H]2C[C@H](F)[C@@H](CO)O2)c(=O)[nH]c1=O", "values": [
      {"measurement": "EC50", "setting": "HIV [1]", "result": "< 0.002", "unit": "µg/mL"}
    ]},
    {"smiles": "Cc1cn([C@H]2C[C@H](N=[N+]=[N-])[C@@H](CO)O2)c(=O)[nH]c1=O", "note": "[AZT, azido-thymidine]", "values": [
      {"measurement": "%B/Bo", "setting": "HIV [2]; AZT 0.01 uM, day 4", "result": 54.2, "unit": "%"},
      {"measurement": "ng p24/ml", "setting": "HIV [2]; AZT 0.01 uM, day 4", "result": 3.6, "unit": "ng p24/ml"},
      {"measurement": "%B/Bo", "setting": "HIV [2]; AZT 0.01 uM, day 7", "result": 62.3, "unit": "%"},
      {"measurement": "ng p24/ml", "setting": "HIV [2]; AZT 0.01 uM, day 7", "result": 2.7, "unit": "ng p24/ml"},
      {"measurement": "%B/Bo", "setting": "HIV [2]; AZT 0.01 uM, day 11", "result": 12.0, "unit": "%"},
      {"measurement": "ng p24/ml", "setting": "HIV [2]; AZT 0.01 uM, day 11", "result": 20, "unit": "ng p24/ml"},
      {"measurement": "%B/Bo", "setting": "HIV [2]; AZT 0.01 uM, day 14", "result": 6.2, "unit": "%"},
      {"measurement": "ng p24/ml", "setting": "HIV [2]; AZT 0.01 uM, day 14", "result": 20, "unit": "ng p24/ml"},
      {"measurement": "%B/Bo", "setting": "HIV [2]; AZT 0.1 uM, day 4", "result": 53.0, "unit": "%"},
      {"measurement": "ng p24/ml", "setting": "HIV [2]; AZT 0.1 uM, day 4", "result": 3.7, "unit": "ng p24/ml"},
      {"measurement": "%B/Bo", "setting": "HIV [2]; AZT 0.1 uM, day 7", "result": 75.2, "unit": "%"},
      {"measurement": "ng p24/ml", "setting": "HIV [2]; AZT 0.1 uM, day 7", "result": 1.6, "unit": "ng p24/ml"},
      {"measurement": "%B/Bo", "setting": "HIV [2]; AZT 0.1 uM, day 11", "result": 78.6, "unit": "%"},
      {"measurement": "ng p24/ml", "setting": "HIV [2]; AZT 0.1 uM, day 11", "result": 1.3, "unit": "ng p24/ml"},
      {"measurement": "%B/Bo", "setting": "HIV [2]; AZT 0.1 uM, day 14", "result": 67.1, "unit": "%"},
      {"measurement": "ng p24/ml", "setting": "HIV [2]; AZT 0.1 uM, day 14", "result": 2.3, "unit": "ng p24/ml"},
      {"measurement": "%B/Bo", "setting": "HIV [2]; AZT 1 uM, day 4", "result": 53.1, "unit": "%"},
      {"measurement": "ng p24/ml", "setting": "HIV [2]; AZT 1 uM, day 4", "result": 3.7, "unit": "ng p24/ml"},
      {"measurement": "%B/Bo", "setting": "HIV [2]; AZT 1 uM, day 7", "result": 68.2, "unit": "%"},
      {"measurement": "ng p24/ml", "setting": "HIV [2]; AZT 1 uM, day 7", "result": 2.2, "unit": "ng p24/ml"},
      {"measurement": "%B/Bo", "setting": "HIV [2]; AZT 1 uM, day 11", "result": 79.8, "unit": "%"},
      {"measurement": "ng p24/ml", "setting": "HIV [2]; AZT 1 uM, day 11", "result": 1.25, "unit": "ng p24/ml"},
      {"measurement": "%B/Bo", "setting": "HIV [2]; AZT 1 uM, day 14", "result": 84.4, "unit": "%"},
      {"measurement": "ng p24/ml", "setting": "HIV [2]; AZT 1 uM, day 14", "result": 0.94, "unit": "ng p24/ml"},
      {"measurement": "toxicity against the PBL", "setting": "[3]", "result": "do not show toxicity"},
      {"measurement": "CPM/1+06 CELLS", "setting": "HIV [4]; AZT 0.01UM, day 7", "result": "1.78E+03", "unit": "CPM/1+06 CELLS"},
      {"measurement": "CPM/ml", "setting": "HIV [4]; AZT 0.01UM, day 7", "result": "5.9E+03", "unit": "CPM/ml"},
      {"measurement": "CPM/1+06 CELLS", "setting": "HIV [4]; AZT 0.01UM, day 11", "result": "7.19E+03", "unit": "CPM/1+06 CELLS"},
      {"measurement": "CPM/ml", "setting": "HIV [4]; AZT 0.01UM, day 11", "result": "2.8E+04", "unit": "CPM/ml"},
      {"measurement": "CPM/1+06 CELLS", "setting": "HIV [4]; AZT 0.01UM, day 14", "result": "2.41E+04", "unit": "CPM/1+06 CELLS"},
      {"measurement": "CPM/ml", "setting": "HIV [4]; AZT 0.01UM, day 14", "result": "1.4E+05", "unit": "CPM/ml"},
      {"measurement": "CPM/1+06 CELLS", "setting": "HIV [4]; AZT 0.1UM, day 7", "result": "8.64E+01", "unit": "CPM/1+06 CELLS"},
      {"measurement": "CPM/ml", "setting": "HIV [4]; AZT 0.1UM, day 7", "result": "3.5E+02", "unit": "CPM/ml"},
      {"measurement": "CPM/1+06 CELLS", "setting": "HIV [4]; AZT 0.1UM, day 11", "result": "2.49E+02", "unit": "CPM/1+06 CELLS"},
      {"measurement": "CPM/ml", "setting": "HIV [4]; AZT 0.1UM, day 11", "result": "1.2E+03", "unit": "CPM/ml"},
      {"measurement": "CPM/1+06 CELLS", "setting": "HIV [4]; AZT 0.1UM, day 14", "result": "9.78E+02", "unit": "CPM/1+06 CELLS"},
      {"measurement": "CPM/ml", "setting": "HIV [4]; AZT 0.1UM, day 14", "result": "3.9E+03", "unit": "CPM/ml"},
      {"measurement": "CPM/1+06 CELLS", "setting": "HIV [4]; AZT 1UM, day 7", "result": "7.66E+02", "unit": "CPM/1+06 CELLS"},
      {"measurement": "CPM/ml", "setting": "HIV [4]; AZT 1UM, day 7", "result": "2.9E+03", "unit": "CPM/ml"},
      {"measurement": "CPM/ml", "setting": "HIV [4]; AZT 1UM, day 11", "result": "-8.1E+03", "unit": "CPM/ml"},
      {"measurement": "CPM/1+06 CELLS", "setting": "HIV [4]; AZT 1UM, day 14", "result": "1.55E+02", "unit": "CPM/1+06 CELLS"},
      {"measurement": "CPM/ml", "setting": "HIV [4]; AZT 1UM, day 14", "result": "5.7E+02", "unit": "CPM/ml"}
    ]},
    {"smiles": "Nc1nc2c(ncn2[C@H]2C[C@H](F)[C@@H](CO)O2)c(=O)[nH]1", "note": "[3ʹ-fluoro-2ʹ,3ʹ-dideoxyguanosine]", "values": [
      {"measurement": "EC50", "setting": "HIV [1]; MT₄-cells, 1:40 dilution of the HIV parent liquid, thymidine incorporation", "result": "< 1.5", "unit": "µg/mL"},
      {"measurement": "in vitro therapeutic index", "setting": "HIV [1]; toxic concentration compared with antiviral concentration, MT₄ human cell line", "result": "approximately 400"}
    ]}
  ]
}
